Experimental data published in patent publication US9593305B2, “Differentiation of pluripotent stem cells” (Janssen Biotech, Inc., priority 2008, dated 2017).

Test system: H1 human embryonic stem cells
Assay: Four-step differentiation before transplant, RT-PCR of pancreatic endoderm markers after step 4 (Example 18)
Assay type: cell-based
Settings: GDF-8 100 ng/ml + 2.5 μM compound in step 1, versus activin A and Wnt3a
Protocol: The differentiation process was started three days after the cells were seeded onto 6-well plates coated with reduced growth factor […]™. A four-step protocol was used for the in vitro differentiation of H1 human embryonic stem cells to cells expressing markers characteristic of the pancreatic endoderm lineage. Step 1 was conducted over three days to generate definitive endoderm cells. On the first day of step 1, differentiation was initiated by aspirating spent culture medium and adding an equal volume of RPMI-1640 basal medium (Invitrogen; Cat 22400) with 2% Albumin Bovine Fraction V, Fatty Acid Free (FAF BSA) (Proliant Biologicals; Cat #SKU 68700) and 8 ng/ml bFGF. In one treatment group, cells were exposed to 100 ng/ml activin A (PeproTech; Cat #120-14) with 20 ng/ml Wnt3a (R&D Systems; Cat #1324-WN/CF). In a second treatment group, cells were exposed to 100 ng/ml GDF-8 (R&D Systems; Cat #788-G8) with 2.5 μM Compound 40. In a third treatment group, cells were exposed to 100 ng/ml GDF-8 (R&D Systems; Cat #788-G8) with 2.5 μM Compound 202. […]
Step 4 of the differentiation protocol was conducted over three days. […] On the following day, cells in suspension culture were collected and counted. […]

SMILES: C=CCN1CC(=O)NCCCc2cncc(c2)-c2ncnc(n2)Nc2cccc(c2)C1 [Compound 40, 14-Prop-2-en-1-yl-3,5,7,14,17,23,27-heptaazatetracyclo[19.3.1.1˜2.6˜0.1˜8,12˜]heptacosa-1(25), 2(27), 3,5,8(26), 9,11,21,23-nonaen-16-one]
- PE markers CDX2, MAFA, NGN3, NKX6.1, PDX1 and Ptf1 alpha at the conclusion of step 4 (RT-PCR): expressed equivalent levels of PE markers
